From PubChem BioAssay (NCI) come the findings set out here.

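Growth conditions: 96-well plates. Treatment: test compound, 48 hours, 5 concentrations. Analysis: linear interpolation between bracketing concentrations; unreached endpoints set to highest concentration. GI50 marks 50% less growth. TGI: concentration producing complete growth inhibition.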 Some results are limits rather than exact numbers.

In the first experiment the test system is NCI-H522 lung. Put plainly: DTP human tumour cell line panel, 48 h.
The term GI50 denotes the concentration at which growth is held to half of that of the control. The term TGI denotes the concentration at which net growth stops. With `O=C(CSc1nc2ccc([N+](=O)[O-])cc2[nH]1)Nc1ccc(F)c(Cl)c1`, the GI50 was 2.37 µM and the TGI is 12.4 µM.

Turning to `C=C1C(=O)O[C@H]2[C@H]1CC/C(CNC(=O)c1c[nH]c3ccc(F)cc13)=C\CC[C@@]1(C)O[C@@H]21`, the 50% growth inhibitory concentration (GI50) is 0.282 µM and the TGI worked out at 1.31 µM.

On to `Cc1nn(-c2ccc(F)cc2)c2ncnc(Nc3ccc(NC(=O)Nc4ccc(Cl)c(C(F)(F)F)c4)cc3)c12`, for which the GI50 was 1.74 µM and the total growth inhibition concentration (TGI) was 4.42 µM.

As to `O=C(CCN1CCN(c2cnc3ccccc3n2)CC1)c1csc2ccccc12`, the GI50 is 18.4 µM and the TGI turned out to be 42.8 µM.

In the case of `Cc1ccn2c3c(c(C(=O)O)c2c1)C(=O)c1ccccc1C3=O`, the GI50 was > 45.7 µM and the TGI is > 100 µM.

Regarding `COc1cc2ncn(-c3cc(OCc4ccccc4Cl)c(C(N)=O)s3)c2cc1OC`, the GI50 was 0.13 µM and the concentration for total growth inhibition (TGI) worked out at 1.13 µM.

In the case of `Cc1ccc2c(C(C[N+](=O)[O-])c3cccs3)c(-c3ccccc3)[nH]c2c1` (stereo not given), the GI50 is 1.23 µM and the concentration for total growth inhibition (TGI) turned out to be 8.03 µM.

For a further experiment, the system named is OVCAR-3 ovarian. As to the kind of experiment: DTP human tumour cell line panel, 48 h.
As to `CC(=O)OCC1OC(O[C@@H]2C[C@H]3C(C)(C)[C@H](OC(C)=O)CC[C@]3(C)[C@H]3CCC4=C([C@@H](C)C[C@@H](O)[C@H](O)C(C)(C)O)CC[C@@]4(C)[C@@]32C)C(O)C(O)C1O` (stereo not given in full), the GI50 was 14.4 µM and the TGI came out at 27.8 µM.

Turning to `O=C(NNc1nc2c(F)cccc2n2cccc12)c1cnccn1`, the GI50 was 0.454 µM and the concentration for total growth inhibition (TGI) is 13.6 µM.

As to `CN=C(N)N/N=C(\c1ccccc1)c1ccc(Br)cc1`, the GI50 was 0.29 µM and the TGI turned out to be 2.55 µM.

On to `COc1cc(/C=C\[N+](=O)[O-])ccc1O`, for which the GI50 was 1.9 µM and the total growth inhibition concentration (TGI) amounted to 3.36 µM.

Consider `C=CC(=O)N[C@H]1C=C(C)c2c(-c3cnc4ccccc4c3)c3c(N)ncnc3n2C1`, for which the GI50 is 8.27 µM and the TGI is 52.2 µM.

`C[C@@H]1CC[C@@H]2[C@@H]1[C@H](OC(=O)/C=C/c1ccccc1)[C@]1(c3ccccc3)C[C@@H](OC(=O)CO)[C@@]2(C)O1`: the GI50 is 13.3 µM and the TGI turned out to be 27 µM.

For `O=C(c1ccc2ccccc2c1)c1c(C(F)(F)F)n([O-])c2cc(Cl)c(Cl)cc2[n+]1=O`, the GI50 was 1.39 µM and the concentration for total growth inhibition (TGI) amounted to 2.69 µM.

For `O=C(CSc1nc2ccc([N+](=O)[O-])cc2[nH]1)Nc1ccc(F)c(Cl)c1`, the GI50 is 2 µM and the total growth inhibition concentration (TGI) was found to be 10.1 µM.

`C=C1C(=O)O[C@H]2[C@H]1CC/C(CNC(=O)c1c[nH]c3ccc(F)cc13)=C\CC[C@@]1(C)O[C@@H]21`: the GI50 is 0.486 µM and the concentration for total growth inhibition (TGI) was 1.77 µM.

On to `Cc1nn(-c2ccc(F)cc2)c2ncnc(Nc3ccc(NC(=O)Nc4ccc(Cl)c(C(F)(F)F)c4)cc3)c12`, for which the GI50 was 2.06 µM and the total growth inhibition concentration (TGI) was determined as 5.79 µM.

Turning to `O=C(CCN1CCN(c2cnc3ccccc3n2)CC1)c1csc2ccccc12`, the GI50 is 25 µM and the total growth inhibition concentration (TGI) was determined as 61.5 µM.

Consider `Cc1ccn2c3c(c(C(=O)O)c2c1)C(=O)c1ccccc1C3=O`, for which the GI50 was 2.9 µM and the total growth inhibition concentration (TGI) was > 70.3 µM.

As for `COc1cc2ncn(-c3cc(OCc4ccccc4Cl)c(C(N)=O)s3)c2cc1OC`, the concentration for 50% growth inhibition (GI50) is 0.0867 µM and the total growth inhibition concentration (TGI) worked out at 1.99 µM.

For `Cc1ccc2c(C(C[N+](=O)[O-])c3cccs3)c(-c3ccccc3)[nH]c2c1` (stereo not given), the GI50 was 1.24 µM and the TGI worked out at 4.75 µM.

A further experiment relates to T-47D breast. Put plainly: DTP human tumour cell line panel, 48 h.
`CC(=O)OCC1OC(O[C@@H]2C[C@H]3C(C)(C)[C@H](OC(C)=O)CC[C@]3(C)[C@H]3CCC4=C([C@@H](C)C[C@@H](O)[C@H](O)C(C)(C)O)CC[C@@]4(C)[C@@]32C)C(O)C(O)C1O` (stereo not given in full): the GI50 was 16.5 µM and the concentration for total growth inhibition (TGI) is 30.3 µM.

Turning to `O=C(NNc1nc2c(F)cccc2n2cccc12)c1cnccn1`, the GI50 is 0.509 µM and the total growth inhibition concentration (TGI) was > 34.3 µM.

Turning to `CN=C(N)N/N=C(\c1ccccc1)c1ccc(Br)cc1`, the GI50 is 2.96 µM and the concentration for total growth inhibition (TGI) was 26.7 µM.

Consider `COc1cc(/C=C\[N+](=O)[O-])ccc1O`, for which the GI50 was 2.33 µM and the concentration for total growth inhibition (TGI) amounted to 9.95 µM.

Regarding `C=CC(=O)N[C@H]1C=C(C)c2c(-c3cnc4ccccc4c3)c3c(N)ncnc3n2C1`, the GI50 was 2.22 µM and the total growth inhibition concentration (TGI) was > 100 µM.

On to `C[C@@H]1CC[C@@H]2[C@@H]1[C@H](OC(=O)/C=C/c1ccccc1)[C@]1(c3ccccc3)C[C@@H](OC(=O)CO)[C@@]2(C)O1`, for which the GI50 was 6.67 µM and the TGI was 21.2 µM.

Take `O=C(c1ccc2ccccc2c1)c1c(C(F)(F)F)n([O-])c2cc(Cl)c(Cl)cc2[n+]1=O`: the GI50 is 1.24 µM and the TGI worked out at 3.01 µM.

As for `O=C(CSc1nc2ccc([N+](=O)[O-])cc2[nH]1)Nc1ccc(F)c(Cl)c1`, the GI50 was 1.11 µM and the TGI was determined as 10.2 µM.

With `C=C1C(=O)O[C@H]2[C@H]1CC/C(CNC(=O)c1c[nH]c3ccc(F)cc13)=C\CC[C@@]1(C)O[C@@H]21`, the GI50 was 1.36 µM and the total growth inhibition concentration (TGI) was determined as 5.03 µM.

Regarding `Cc1nn(-c2ccc(F)cc2)c2ncnc(Nc3ccc(NC(=O)Nc4ccc(Cl)c(C(F)(F)F)c4)cc3)c12`, the GI50 is 1.73 µM and the total growth inhibition concentration (TGI) is 5.27 µM.

As for `O=C(CCN1CCN(c2cnc3ccccc3n2)CC1)c1csc2ccccc12`, the GI50 is 18.2 µM and the concentration for total growth inhibition (TGI) was determined as 43.4 µM.

As to `Cc1ccn2c3c(c(C(=O)O)c2c1)C(=O)c1ccccc1C3=O`, the GI50 was > 100 µM and the TGI is > 100 µM.

On to `COc1cc2ncn(-c3cc(OCc4ccccc4Cl)c(C(N)=O)s3)c2cc1OC`, for which the GI50 is 3.78 µM and the TGI was > 25 µM.

For `Cc1ccc2c(C(C[N+](=O)[O-])c3cccs3)c(-c3ccccc3)[nH]c2c1` (stereo not given), the GI50 was 2.22 µM and the concentration for total growth inhibition (TGI) is 27.4 µM.
